Article PMC12155096 (International Journal of Molecular Sciences, 2025)
Read-outs that look alike come from different tables or passages of the source.

How the values were obtained:
[1] = molecular target: Photinus pyralis (firefly) luciferase (Photinus pyralis, UniProt P08659); assay: biochemical; assay type: biochemical
human CYP1A2 [2] = molecular target: T1, human CYP1A2 (Homo sapiens, UniProt P05177); assay: biochemical; conditions: for AC50: CYP1A2 AC50 (half-maximal activity concentration)
T1 sequence (P05177 1-516): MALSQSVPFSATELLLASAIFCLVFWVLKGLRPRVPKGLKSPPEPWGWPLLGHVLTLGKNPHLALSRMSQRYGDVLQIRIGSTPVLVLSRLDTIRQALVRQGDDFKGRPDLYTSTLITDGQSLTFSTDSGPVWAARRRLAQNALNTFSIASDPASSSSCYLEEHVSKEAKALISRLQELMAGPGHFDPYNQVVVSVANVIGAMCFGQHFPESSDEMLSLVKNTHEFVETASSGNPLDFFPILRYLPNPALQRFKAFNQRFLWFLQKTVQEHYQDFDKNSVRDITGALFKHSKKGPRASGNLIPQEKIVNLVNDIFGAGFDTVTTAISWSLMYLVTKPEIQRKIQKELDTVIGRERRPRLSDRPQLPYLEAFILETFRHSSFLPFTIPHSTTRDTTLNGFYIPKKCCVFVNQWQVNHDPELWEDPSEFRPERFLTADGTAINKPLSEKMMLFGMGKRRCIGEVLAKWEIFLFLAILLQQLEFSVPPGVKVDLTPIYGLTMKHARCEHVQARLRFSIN

human CYP2C9 [3] = molecular target: T2, human CYP2C9 (Homo sapiens, UniProt P11712); assay: biochemical
T2 sequence (P11712 whole entry): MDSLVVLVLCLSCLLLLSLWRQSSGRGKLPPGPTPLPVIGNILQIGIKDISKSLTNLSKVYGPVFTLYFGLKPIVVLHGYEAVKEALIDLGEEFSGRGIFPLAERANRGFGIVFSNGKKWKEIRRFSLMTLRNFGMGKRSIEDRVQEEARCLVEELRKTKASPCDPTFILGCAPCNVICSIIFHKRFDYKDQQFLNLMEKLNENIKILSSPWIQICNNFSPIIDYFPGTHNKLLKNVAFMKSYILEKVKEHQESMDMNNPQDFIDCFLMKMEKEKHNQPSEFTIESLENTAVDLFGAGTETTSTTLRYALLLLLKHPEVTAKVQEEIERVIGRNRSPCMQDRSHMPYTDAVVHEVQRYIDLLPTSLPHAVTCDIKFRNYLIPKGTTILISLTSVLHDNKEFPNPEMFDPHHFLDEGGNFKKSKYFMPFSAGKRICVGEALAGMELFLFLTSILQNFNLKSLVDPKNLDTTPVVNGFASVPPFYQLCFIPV

human CYP2C19 = human CYP2C19 (Homo sapiens, UniProt P33261); assay: biochemical; conditions: for AC50: CYP2C19 AC50 (half-maximal activity concentration)
Chain of human CYP2C19 (P33261 whole entry): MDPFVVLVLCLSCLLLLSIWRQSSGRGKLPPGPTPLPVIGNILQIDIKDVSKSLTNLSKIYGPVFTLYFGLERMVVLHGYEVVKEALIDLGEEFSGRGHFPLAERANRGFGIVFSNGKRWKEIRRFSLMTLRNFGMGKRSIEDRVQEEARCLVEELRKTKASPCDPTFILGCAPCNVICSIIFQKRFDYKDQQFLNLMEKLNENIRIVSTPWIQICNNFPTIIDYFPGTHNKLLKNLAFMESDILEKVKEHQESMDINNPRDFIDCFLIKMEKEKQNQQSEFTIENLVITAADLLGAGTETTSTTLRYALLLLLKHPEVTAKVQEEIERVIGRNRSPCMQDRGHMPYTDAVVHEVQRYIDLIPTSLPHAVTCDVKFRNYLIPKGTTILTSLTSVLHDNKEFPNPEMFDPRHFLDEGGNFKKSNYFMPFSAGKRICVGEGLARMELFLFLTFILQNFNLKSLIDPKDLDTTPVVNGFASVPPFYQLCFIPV

human CYP2D6 = human CYP2D6 (Homo sapiens, UniProt P10635); assay: biochemical; conditions: for AC50: CYP2D6 AC50 (half-maximal activity concentration)
Chain of human CYP2D6 (P10635 whole entry): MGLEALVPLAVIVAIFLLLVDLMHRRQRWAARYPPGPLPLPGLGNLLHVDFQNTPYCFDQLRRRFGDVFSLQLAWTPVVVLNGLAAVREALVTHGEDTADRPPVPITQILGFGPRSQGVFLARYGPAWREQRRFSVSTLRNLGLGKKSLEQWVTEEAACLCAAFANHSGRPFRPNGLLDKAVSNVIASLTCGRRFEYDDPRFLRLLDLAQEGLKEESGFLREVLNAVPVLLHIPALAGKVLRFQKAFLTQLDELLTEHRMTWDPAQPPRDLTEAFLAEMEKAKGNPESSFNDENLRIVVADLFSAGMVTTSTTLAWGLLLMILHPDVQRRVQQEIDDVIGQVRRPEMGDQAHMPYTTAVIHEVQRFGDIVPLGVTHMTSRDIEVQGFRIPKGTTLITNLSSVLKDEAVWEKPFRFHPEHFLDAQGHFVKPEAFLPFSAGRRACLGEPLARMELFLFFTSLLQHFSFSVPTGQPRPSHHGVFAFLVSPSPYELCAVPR

CYP3A4 = CYP3A4 (Homo sapiens, UniProt P08684); assay: biochemical; conditions: for AC50: CYP3A4 AC50 (half-maximal activity concentration)
Chain of CYP3A4 (P08684 whole entry): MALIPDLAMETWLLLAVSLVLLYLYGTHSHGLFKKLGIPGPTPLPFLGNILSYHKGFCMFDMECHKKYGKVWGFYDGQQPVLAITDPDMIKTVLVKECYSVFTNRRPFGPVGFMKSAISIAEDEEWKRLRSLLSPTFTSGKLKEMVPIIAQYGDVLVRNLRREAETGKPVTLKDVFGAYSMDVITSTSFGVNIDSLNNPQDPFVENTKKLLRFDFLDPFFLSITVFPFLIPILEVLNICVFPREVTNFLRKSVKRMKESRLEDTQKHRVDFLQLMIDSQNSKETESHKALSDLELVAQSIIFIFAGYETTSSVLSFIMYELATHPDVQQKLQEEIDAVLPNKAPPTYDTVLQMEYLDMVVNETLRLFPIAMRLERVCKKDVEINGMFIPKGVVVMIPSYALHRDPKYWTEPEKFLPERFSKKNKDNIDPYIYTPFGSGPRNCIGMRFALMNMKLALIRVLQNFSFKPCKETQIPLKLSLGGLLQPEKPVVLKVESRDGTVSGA

human CYP1A2 [4] = molecular target: T1, human CYP1A2
human CYP2C9 [5] = molecular target: T2, human CYP2C9
[6] = CYP1A2 IC50 (half-maximal inhibitory concentration)
[7] = CYP2C9 IC50 (half-maximal inhibitory concentration)
[8] = CYP2C19 IC50 (half-maximal inhibitory concentration)
[9] = CYP2D6 IC50 (half-maximal inhibitory concentration)
[10] = CYP3A4 IC50 (half-maximal inhibitory concentration)

Chain of Photinus pyralis (firefly) luciferase (P08659 whole entry): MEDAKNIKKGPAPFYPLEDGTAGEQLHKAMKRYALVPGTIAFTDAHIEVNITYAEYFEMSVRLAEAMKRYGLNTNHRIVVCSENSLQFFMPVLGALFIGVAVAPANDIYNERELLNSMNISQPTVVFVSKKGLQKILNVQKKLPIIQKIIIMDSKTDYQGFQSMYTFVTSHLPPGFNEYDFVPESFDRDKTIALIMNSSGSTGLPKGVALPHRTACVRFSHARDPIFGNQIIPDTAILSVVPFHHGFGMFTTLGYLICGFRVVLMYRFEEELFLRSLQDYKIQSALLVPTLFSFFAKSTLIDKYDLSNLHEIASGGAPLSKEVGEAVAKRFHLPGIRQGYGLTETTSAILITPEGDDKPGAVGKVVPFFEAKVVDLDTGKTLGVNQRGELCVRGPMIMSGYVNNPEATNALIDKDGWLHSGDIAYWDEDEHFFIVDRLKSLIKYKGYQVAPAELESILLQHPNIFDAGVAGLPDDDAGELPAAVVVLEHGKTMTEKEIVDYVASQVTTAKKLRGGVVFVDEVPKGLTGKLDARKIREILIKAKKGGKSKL

| Compound | IC50 (human CYP2C19; CYP2C19 IC50) [µM] | IC50 (CYP3A4; CYP3A4 IC50) [µM] | IC50 (human CYP1A2 [2]; [6]) [µM] | IC50 (human CYP2C9 [3]; [7]) [µM] | IC50 (human CYP2C19; [8]) [µM] | IC50 (human CYP2D6; [9]) [µM] | IC50 (CYP3A4; [10]) [µM] | IC50 [1] [µM] | other results |
| --- | --- | --- | --- | --- | --- | --- | --- | --- | --- |
| c1ccc2sc(SN(C3CCCCC3)C3CCCCC3)nc2c1 | 15.6 | 5.16 | – | – | – | – | – | – | Luciferase IC50 [1]: Inactive; IC50 (human CYP1A2 [2]; CYP1A2 IC50): 32.9 µM; IC50 (human CYP2C9 [3]; CYP2C9 IC50): 8.95 µM; IC50 (human CYP2D6; CYP2D6 IC50): 0.56 µM |
| Fc1ccc([C@]2(Cn3cncn3)O[C@H]2c2ccccc2Cl)cc1 (racemic) [Epoxiconazole] | – | – | 3.92 | 5.66 | 0.34 | 37 | 0.91 | – | Luciferase IC50 (half-maximal inhibitory concentration) [1]: Inactive |
| CC(C)(C)[C@@H](O)[C@@H](Cc1ccc(Cl)cc1)n1cncn1 (racemic) [Paclobutrazol] | – | – | 74.8 | 12.1 | 0.33 | 36.8 | 0.14 | – | Luciferase IC50 (half-maximal inhibitory concentration) [1]: Inactive |
| Cc1ccccc1NC(=N)Nc1ccccc1C [1,3-Bis(2-methylphenyl)guanidine] | 1.11 | 41 | – | – | – | – | – | – | Luciferase IC50 [1]: Inactive; CYP1A2 IC50 (human CYP1A2 [4]): Inactive; IC50 (human CYP2D6; CYP2D6 IC50): 0.01 µM |
| Nc1ccc(N)c2c1C(=O)c1ccccc1C2=O [1,4-Diaminoanthraquinone] | – | – | 0.35 | – | 24.7 | 33 | 5.17 | 15.2 | – |
| Cc1ccc2ccc3cccc4ccc1c2c34 [1-Methylpyrene] | 31.8 | 30.5 | – | – | – | – | – | 44.9 | IC50 (human CYP1A2 [2]; CYP1A2 IC50): 0.86 µM; IC50 (human CYP2C9 [3]; CYP2C9 IC50): 55.4 µM; IC50 (human CYP2D6; CYP2D6 IC50): 55.4 µM |
| Cc1cc(C)c(N)cc1C [2,4,5-Trimethylaniline] | 9.81 | 35.5 | – | – | – | – | – | 15.8 | IC50 (human CYP1A2 [2]; CYP1A2 IC50): 0.87 µM; IC50 (human CYP1A2 [2]; IC50 CYP1A2 assay): 0.79 µM; IC50 (human CYP2C9 [3]; CYP2C9 IC50): 32.9 µM; IC50 (human CYP2D6; CYP2D6 IC50): 38.1 µM |
| O=S(=O)(Oc1ccc(Cl)cc1Cl)c1ccccc1 [2,4-Dichlorophenyl benzenesulfonate] | – | – | 1.58 | 39.2 | 0.49 | 64.4 | 2.12 | 54.6 | AC50 (human CYP1A2 [2]): 2.24 µM; AC50 (human CYP2C9 [3]; CYP2C9 AC50 (half-maximal activity concentration)): 35.7 µM; AC50 (human CYP2C19): 0.77 µM; IC50 (human CYP2C19; IC50 CYP2C19 assay): 0.42 µM; AC50 (human CYP2D6): 51.1 µM; AC50 (CYP3A4): 3.27 µM |
| Cc1cccc2sc(N)nc12 [2-Amino-4-methylbenzothiazole] | – | – | – | – | – | – | – | – | CYP2C9 AC50 (half-maximal activity concentration) (human CYP2C9 [5]): Inconclusive inhibitor; AC50 (human CYP1A2 [2]): 21.2 µM; AC50 (human CYP2C19): 27.8 µM; AC50 (human CYP2D6): 41.1 µM; AC50 (CYP3A4): 11.8 µM |
| Nc1ccc2c(c1)C(=O)c1ccccc1C2=O [2-Aminoanthraquinone] | – | – | 0.2 | 22.5 | 14 | 41.4 | 1.64 | 2.67 | – |
| Cc1cc(-c2ccc(N)c(C)c2)ccc1N [3,3'-Dimethylbenzidine] | 6.24 | 10.6 | – | – | – | – | – | 76.3 | IC50 (human CYP1A2 [2]; CYP1A2 IC50): 0.47 µM; IC50 (human CYP1A2 [2]; IC50 CYP1A2 assay): 0.64 µM; IC50 (human CYP2C9 [3]): 23.4 µM; IC50 (human CYP2D6): 3.41 µM |
| CN(C)c1ccc(Cc2ccc(N(C)C)cc2)cc1 [4,4'-Methylenebis(N,N-dimethylaniline)] | – | – | 4.55 | 25.5 | 0.22 | 40.1 | 19.9 | – | Luciferase IC50 (half-maximal inhibitory concentration) [1]: Inactive |
| Cc1cc(O)c(C(C)(C)C)cc1Sc1cc(C(C)(C)C)c(O)cc1C [4,4'-Thiobis(6-tert-butyl-m-cresol)] | – | – | 40 | 4.21 | 0.38 | 24.4 | 7.29 | – | Luciferase IC50 (half-maximal inhibitory concentration) [1]: Inactive |
| c1ccc(CCCc2ccncc2)cc1 [4-(3-Phenylpropyl)pyridine] | – | – | – | – | – | – | – | 55.3 | IC50 (human CYP1A2 [2]): 1.14 µM; IC50 (human CYP2C9 [3]): 1.86 µM; IC50 (human CYP2C19): 0.7 µM; IC50 (human CYP2D6): 3.93 µM; IC50 (CYP3A4): 0.43 µM |
| OCc1c2ccccc2cc2ccccc12 [9-Anthracenemethanol] | – | – | 0.7 | 27.6 | 26.1 | 60.1 | 29.8 | 68.7 | – |
| O=C1C(=O)c2cccc3cccc1c23 [Acenaphthenequinone] | – | – | – | – | – | – | – | – | CYP2C9 AC50 (half-maximal activity concentration) (human CYP2C9 [5]): Inconclusive inhibitor; AC50 (human CYP1A2 [2]): 7.99 µM; AC50 (human CYP2C19): 35.7 µM; AC50 (human CYP2D6): 23.4 µM; AC50 (CYP3A4): 23.7 µM |
